# Reference: US8633200B2, “Inhibitors of human immunodeficiency virus replication” (priority 2010, dated 2014)
# Structures can show the parent of a compound that is named as a salt.
# System: recombinant NL-Rluc virus (NL4-3 with Renilla Luciferase gene) in MT-2 cells
# Assay: Inhibition of HIV replication (NL-Rluc luciferase reporter virus, MT-2 cells)
# Assay type: cell-based, human immunodeficiency virus (HIV)
# Settings: NL43, 120 h, read-out: Activity
row,SMILES,EC50 [µM]
1,"Cc1nc2cc(-c3cccc(-c4cnc5ccccc5c4)c3)nn2c(-c2cc(F)c3c(c2C)CCCO3)c1[C@H](OC(C)(C)C)C(=O)O [Example 172, (2S)-2-(tert-Butoxy)-2-(7-(8-fluoro-5-methylchroman-6-yl)-5-methyl-2-(3-(quinolin-3-yl)phenyl)pyrazolo[1,5-a]pyrimidin-6-yl)acetic acid]",< 0.1
2,Cc1nc2cc(-c3ccccc3)nn2c(-c2ccc(OC(C)C)cc2)c1C(OC(C)(C)C)C(=O)O (stereo not shown) [Example 34],> 1
3,Cc1nc2cc(-c3ccccc3)nn2c(-c2cc(F)c3c(c2C)CCCO3)c1C(OC(C)(C)C)C(=O)O (stereo not shown) [Example 38],0.1 to 1
4,"COc1cccc(-c2cc3nc(C)c(C(OC(C)(C)C)C(=O)O)c(-c4cc(F)c5c(c4C)CCCO5)n3n2)c1 (stereo not shown) [Example 99, 2-tert-Butoxy-2-(7-(8-fluoro-5-methylchroman-6-yl)-2-(3-methoxyphenyl)-5-methylpyrazolo[1,5-a]pyrimidin-6-yl)acetic acid]",0.1 to 1
5,Cc1nc2cc(-c3ccccc3)nn2c(-c2ccc(OCc3ccccc3)cc2)c1C(OC(C)(C)C)C(=O)O (stereo not shown) [Example 31],> 1
6,"COc1ccc(-c2cccc(-c3cc4nc(C)c([C@H](OC(C)(C)C)C(=O)O)c(-c5cc(F)c6c(c5C)CCCO6)n4n3)c2)cn1 [Example 169, (2S)-2-(tert-Butoxy)-2-(7-(8-fluoro-5-methylchroman-6-yl)-2-(3-(6-methoxypyridin-3-yl)phenyl)-5-methylpyrazolo[1,5-a]pyrimidin-6-yl)acetic acid]",< 0.1
7,Cc1nc2cc(-c3ccccc3)nn2c(-c2ccc(C)c3ccccc23)c1C(OC(C)(C)C)C(=O)O (stereo not shown) [Example 87],> 1
8,Cc1nc2cc(-c3ccccc3)nn2c(-c2cccc3cn[nH]c23)c1C(OC(C)(C)C)C(=O)O (stereo not shown) [Example 80],> 1
9,"Cc1nc2cc(-c3cccc(-c4ccnc(N5CCN(C)CC5)c4)c3)nn2c(-c2cc(F)c3c(c2C)CCCO3)c1[C@H](OC(C)(C)C)C(=O)O [Example 175, (2S)-2-(tert-Butoxy)-2-(7-(8-fluoro-5-methylchroman-6-yl)-5-methyl-2-(3-(2-(4-methylpiperazin-1-yl)pyridin-4-yl)phenyl)pyrazolo[1,5-a]pyrimidin-6-yl)acetic acid]",< 0.1
10,"Cc1nc2cc(-c3cccc(Cl)c3)nn2c(C(C)C)c1[C@H](OC(C)(C)C)C(=O)O [Example 145, (S)-2-(tert-Butoxy)-2-(2-(3-chlorophenyl)-7-isopropyl-5-methylpyrazolo[1,5-a]pyrimidin-6-yl)acetic acid]",> 1
11,"Cc1nc2cc(-c3cccc(-c4cccnc4)c3)nn2c(-c2cc(F)c3c(c2C)CCCO3)c1[C@H](OC(C)(C)C)C(=O)O [Example 119, (2S)-2-(tert-Butoxy)-2-(7-(8-fluoro-5-methylchroman-6-yl)-5-methyl-2-(3-(pyridin-3-yl)phenyl)pyrazolo[1,5-a]pyrimidin-6-yl)acetic acid]",< 0.1
12,Cc1nc2cc(-c3ccccc3)nn2c(-c2cccc3cccnc23)c1C(OC(C)(C)C)C(=O)O (stereo not shown) [Example 69],> 1
13,"Cc1nc2c(-c3cccc(Cl)c3)cnn2c(-c2ccc3c(c2)CCCO3)c1C(OC(C)(C)C)C(=O)O (stereo not shown) [Example 133, 2-tert-Butoxy-2-(3-(3-chlorophenyl)-(7-chroman-6-yl)-5-methylpyrazolo[1,5-a]pyrimidin-6-yl)acetic acid]",0.1 to 1
14,Cc1nc2cc(-c3ccccc3)nn2c(-c2cccc(Cl)c2Cl)c1C(OC(C)(C)C)C(=O)O (stereo not shown) [Example 85],> 1
15,"Cc1nc2cc(-c3ccc4c(c3)CCCC4)nn2c(-c2ccc(Cl)cc2F)c1[C@H](OC(C)(C)C)C(=O)O [Example 157, (2S)-2-(tert-Butoxy)-2-(7-(4-chloro-2-fluorophenyl)-5-methyl-2-(5,6,7,8-tetrahydronaphthalen-2-yl)pyrazolo[1,5-a]pyrimidin-6-yl)acetic acid]",0.1 to 1
16,Cc1cc(-c2c(C(OC(C)(C)C)C(=O)O)c(C)nc3cc(-c4ccccc4)nn23)ccc1F (stereo not shown) [Example 59],> 1
17,"Cc1nc2cc(-c3cccc(-c4ccncc4)c3)nn2c(-c2cc(F)c3c(c2C)CCCO3)c1[C@H](OC(C)(C)C)C(=O)O [Example 121, (2S)-2-(tert-Butoxy)-2-(7-(8-fluoro-5-methylchroman-6-yl)-5-methyl-2-(3-(pyridin-4-yl)phenyl)pyrazolo[1,5-a]pyrimidin-6-yl)acetic acid, TFA salt]",< 0.1
18,Cc1nc2cc(-c3ccccc3)nn2c(-c2cccc3ncccc23)c1C(OC(C)(C)C)C(=O)O (stereo not shown) [Example 71],> 1
19,"Cc1ccc(-c2cccc(-c3cc4nc(C)c([C@H](OC(C)(C)C)C(=O)O)c(-c5cc(F)c6c(c5C)CCCO6)n4n3)c2)cc1 [Example 126, (2S)-2-(tert-Butoxy)-2-(7-(8-fluoro-5-methylchroman-6-yl)-2-(4′-methyl-[1,1′-biphenyl]-3-yl)-5-methylpyrazolo[1,5-a]pyrimidin-6-yl)acetic acid, TFA salt]",< 0.1
20,COc1ccc(-c2c(C(OC(C)(C)C)C(=O)O)c(C)nc3cc(-c4ccccc4)nn23)cn1 (stereo not shown) [Example 12],> 1

row,SMILES,EC50 [µM]
1,"COc1ccc(-c2cc3nc(C)c(C(OC(C)(C)C)C(=O)O)c(-c4cc(F)c5c(c4C)CCCO5)n3n2)cc1 (stereo not shown) [Example 92, 2-tert-Butoxy-2-(7-(8-fluoro-5-methylchroman-6-yl)-2-(4-methoxyphenyl)-5-methylpyrazolo[1,5-a]pyrimidin-6-yl)acetic acid, TFA salt]",0.1 to 1
2,COc1cc(F)c(-c2c(C(OC(C)(C)C)C(=O)O)c(C)nc3cc(-c4ccccc4)nn23)cc1F (stereo not shown) [Example 35],> 1
3,"Cc1nc2cc(-c3cccc(Cl)c3)nn2c(-c2cc(F)c3c(c2C)CCCO3)c1[C@H](OC(C)(C)C)C(=O)O [Example 123, (2S)-2-(tert-Butoxy)-2-(2-(3-chlorophenyl)-7-(8-fluoro-5-methylchroman-6-yl)-5-methylpyrazolo[1,5-a]pyrimidin-6-yl)acetic acid, TFA salt]",< 0.1
4,"Cc1nc2cc(-c3ccccc3)nn2c(-c2cc(F)c3c(c2C)CCCO3)c1[C@@H](OC(C)(C)C)C(=O)O [Example 40, (2R)-2-tert-butoxy-2-(7-(8-fluoro-5-methylchroman-6-yl)-5-methyl-2-phenylpyrazolo[1,5-a]pyrimidin-6-yl)acetic acid]",> 1
5,"Cc1cc(F)ccc1-c1cccc(-c2cc3nc(C)c([C@H](OC(C)(C)C)C(=O)O)c(-c4cc(F)c5c(c4C)CCCO5)n3n2)c1 [Example 166, (2S)-2-(tert-Butoxy)-2-(2-(4′-fluoro-2′-methyl-[1,1′-biphenyl]-3-yl)-7-(8-fluoro-5-methylchroman-6-yl)-5-methylpyrazolo[1,5-a]pyrimidin-6-yl)acetic acid]",< 0.1
6,"Cc1nc2cc(-c3cccc(-c4ccncc4)c3)nn2c(-c2cc(F)c3c(c2C)CCCO3)c1[C@@H](OC(C)(C)C)C(=O)O [Example 122, (2R)-2-(tert-Butoxy)-2-(7-(8-fluoro-5-methylchroman-6-yl)-5-methyl-2-(3-(pyridin-4-yl)phenyl)pyrazolo[1,5-a]pyrimidin-6-yl)acetic acid, TFA salt]",> 1
7,Cc1ccc(-c2c(C(OC(C)(C)C)C(=O)O)c(C)nc3cc(-c4ccccc4)nn23)c(Cl)c1 (stereo not shown) [Example 53],0.1 to 1
8,Cc1ccc(-c2c(C(OC(C)(C)C)C(=O)O)c(C)nc3cc(-c4ccccc4)nn23)c(C)c1 (stereo not shown) [Example 91],> 1
9,"Cc1nc2cc(-c3cccc(Cl)c3)nn2c(C2CCCCC2)c1[C@H](OC(C)(C)C)C(=O)O [Example 149, (S)-2-(tert-Butoxy)-2-(2-(3-chlorophenyl)-7-cyclohexyl-5-methylpyrazolo[1,5-a]pyrimidin-6-yl)acetic acid]",> 1
10,Cc1nc2cc(-c3ccccc3)nn2c(-c2cc3ccccc3o2)c1C(OC(C)(C)C)C(=O)O (stereo not shown) [Example 64],> 1
11,Cc1nc2cc(-c3ccccc3)nn2c(-c2cc3ccccc3n2C)c1C(OC(C)(C)C)C(=O)O (stereo not shown) [Example 48],> 1
12,"COc1ccccc1-c1cccc(-c2cc3nc(C)c([C@H](OC(C)(C)C)C(=O)O)c(-c4cc(F)c5c(c4C)CCCO5)n3n2)c1 [Example 116, (2S)-2-(tert-Butoxy)-2-(7-(8-fluoro-5-methylchroman-6-yl)-2-(2′-methoxy-[1,1′-biphenyl]-3-yl)-5-methylpyrazolo[1,5-a]pyrimidin-6-yl)acetic acid]",< 0.1
13,COc1ccc(-c2c(C(OC(C)(C)C)C(=O)O)c(C)nc3cc(-c4ccccc4)nn23)cc1OC (stereo not shown) [Example 22],> 1
14,Cc1nc2cc(-c3ccccc3)nn2c(-c2ccc(C(C)C)cc2)c1C(OC(C)(C)C)C(=O)O (stereo not shown) [Example 57],> 1
15,"Cc1ccc(-c2cc3nc(C)c(C(OC(C)(C)C)C(=O)O)c(-c4cc(F)c5c(c4C)CCCO5)n3n2)cc1 (stereo not shown) [Example 46, 2-tert-Butoxy-2-(7-(8-fluoro-5-methylchroman-6-yl)-5-methyl-2-p-tolylpyrazolo[1,5-a]pyrimidin-6-yl)acetic acid, TFA salt]",< 0.1
16,"Cc1nc2cc(-c3cccc(-c4ccccc4F)c3)nn2c(-c2cc(F)c3c(c2C)CCCO3)c1[C@H](OC(C)(C)C)C(=O)O [Example 118, (2S)-2-(tert-Butoxy)-2-(7-(8-fluoro-5-methylchroman-6-yl)-2-(2′-fluoro-[1,1′-biphenyl]-3-yl)-5-methylpyrazolo[1,5-a]pyrimidin-6-yl)acetic acid]",< 0.1
17,Cc1nc2cc(-c3ccccc3)nn2c(-c2ccc3c(c2)OCCCO3)c1C(OC(C)(C)C)C(=O)O (stereo not shown) [Example 89],> 1
18,"Cc1ccc(-c2c([C@H](OC(C)(C)C)C(=O)O)c(C)nc3cc(-c4ccc5c(c4)CCCC5)nn23)c(Cl)c1 [Example 156, (2S)-2-(tert-Butoxy)-2-(7-(2-chloro-4-methylphenyl)-5-methyl-2-(5,6,7,8-tetrahydronaphthalen-2-yl)pyrazolo[1,5-a]pyrimidin-6-yl)acetic acid]",> 1
19,Cc1nc2cc(-c3ccccc3)nn2c(-c2ccc(F)c(F)c2)c1C(OC(C)(C)C)C(=O)O (stereo not shown) [Example 83],> 1
20,COc1ccc(-c2c(C(OC(C)(C)C)C(=O)O)c(C)nc3cc(-c4ccccc4)nn23)c(Cl)c1 (stereo not shown) [Example 52],> 1

# Same assay, conditions: NL43, 120 h, read-out: EC50 μM
row,SMILES,EC50 [µM]
1,"COc1cccc(-c2cc3nc(C)c(C(OC(C)(C)C)C(=O)O)c(-c4cc(F)c5c(c4C)CCCO5)n3n2)c1 (stereo not shown) [Example 99, 2-tert-Butoxy-2-(7-(8-fluoro-5-methylchroman-6-yl)-2-(3-methoxyphenyl)-5-methylpyrazolo[1,5-a]pyrimidin-6-yl)acetic acid]",0.35
2,Cc1nc2cc(-c3ccccc3)nn2c(-c2ccc(C(C)C)cc2)c1C(OC(C)(C)C)C(=O)O (stereo not shown) [Example 57],1.7
3,"Cc1ccc(-c2cc3nc(C)c(C(OC(C)(C)C)C(=O)O)c(-c4cc(F)c5c(c4C)CCCO5)n3n2)cc1 (stereo not shown) [Example 46, 2-tert-Butoxy-2-(7-(8-fluoro-5-methylchroman-6-yl)-5-methyl-2-p-tolylpyrazolo[1,5-a]pyrimidin-6-yl)acetic acid, TFA salt]",0.09
